Tests used:
Flt3 [1] = biological target: T1, Flt3 (Homo sapiens, UniProt P36888); assay: Recombinant kinase ELISA assay, Flt3; type: biochemical; details: recombinant human enzyme; ELISA-based assay, poly(Glu,Tyr 4:1) substrate
Method: (§1) Full details for the generation of recombinant human KIT intracellular domain and other protein kinases (including Lyn, platelet derived growth factor receptor β, epidermal growth factor receptor, fibroblast growth factor receptor 1, Src, HCK, PYK, FES, Btk, Bmx, c-Ret, c-Fms, Syk, and c-Met) are provided in the Supplemental Methods (see Supporting Information; Methods S1). Experiments on ABL1, Akt1, protein kinase C-α, insulin-like growth factor receptor 1, and Pim1 were carried out by Proqinase (Germany). All other recombinant protein kinases were performed in-house using an enzyme-linked immunoassay; experimental details are provided in the Supplemental Methods (see Supporting Information; Methods S1).

VEGFR1 = VEGFR1 (Homo sapiens, UniProt P17948); assay: Recombinant kinase ELISA assay, VEGFR1; type: biochemical; details: recombinant human enzyme; ELISA-based assay, poly(Glu,Tyr 4:1) substrate
Method: as §1
(§2) A 96-well microtitre plate (Immulon 2HB; ThermoLifeScience, Finland) was coated overnight with 0.25 mg/ml poly(Glu,Tyr 4:1), rinsed twice with 250 µl of washing buffer (10 mM phosphate-buffered saline [pH 7.4] and 0.05% Tween 20) and dried for 2 hours at room temperature. […] Reactions were initiated upon introduction of the enzyme and terminated with the addition of one reaction volume (50 μl) of 100 mM EDTA per 5 M urea mix. […] The final reaction product was quantified by spectrophotometry at 450 nm.

VEGFR2 = VEGFR2 (Homo sapiens, UniProt P35968); assay: Recombinant kinase ELISA assay, VEGFR2; type: biochemical; details: recombinant human enzyme; ELISA-based assay, poly(Glu,Tyr 4:1) substrate
Method: as §1

Src = biological target: T2, Src (Homo sapiens, UniProt P12931); assay: Recombinant kinase ELISA assay, Src; type: biochemical; details: recombinant human enzyme; ELISA-based assay, poly(Glu,Tyr 4:1) substrate
T2 construct: Src (2–536; BC011566); 6xHN (N); made in house; host or cells: baculovirus, Sf9 insect cells
Method: as §1, §2

Hck = biological target: T3, Hck (Homo sapiens, UniProt P08631); assay: Recombinant kinase ELISA assay, Hck; type: biochemical; details: recombinant human enzyme; ELISA-based assay, poly(Glu,Tyr 4:1) substrate
T3 construct: Hck (2-526; BC014435); 6xHN (N); made in house; host or cells: baculovirus, Sf9 insect cells
Method: as §1
The sequences encoding PDGF receptor β (residues 554–1106; GenBank accession no. BC032224), Lyn B (2–583; accession no. BC059394), fibroblast growth factor receptor 1 (572–959; accession no. BC018128), Src (2–536; accession no. BC011566), Btk (2–659; accession no. BC109079), Bmx (2–675; accession no. BC016652), c-Ret (713–1114; accession no. BC004257), c-Fms (538–972; BC047531), Syk (2–612; BC011399), Hck (2-526; accession no. BC014435), Fes (2-822; accession no. BC035357), PYK2 (2-1006; accession no. BC042599) and c-Met (949–1398; accession no. lifeseq3489592) were amplified by PCR from IMAGE cDNA clones purchased from Openbiosystems. […]

Akt1 = biological target: T4, Akt1 (Homo sapiens, UniProt P31749); assay: Recombinant kinase screen (Proqinase), Akt1; type: biochemical; details: recombinant human enzyme; single experiment, kinase screen by Proqinase
T4 construct: purchased Proqinase (Germany)
Method: as §1

KIT D^814V (murine) = biological target: T5, KIT D^814V (murine) (Mus musculus, UniProt P05532, D818V); assay: Ba/F3 cell proliferation (WST-1), KIT D814V; details: Ba/F3 cells expressing the enzyme, read-out: Cell-based assay IC50, KIT D^814V (murine)
T5 construct: expressed in transfected cells; host or cells: Ba/F3

Flt3 [2] = biological target: T1, Flt3; assay: Ba/F3 cell proliferation (WST-1), Flt3; details: Ba/F3 cells expressing the enzyme, read-out: Cell-based assay IC50, Flt3
[3] = biological target: Fibroblast growth factor receptor 3 (Homo sapiens, UniProt P22607); assay: Ba/F3 cell proliferation (WST-1), FGFR3; details: Ba/F3 cells expressing the enzyme, read-out: Cell-based assay IC50, Fibroblast growth factor receptor 3
Tyk2 = biological target: T6, Tyk2 (Homo sapiens, UniProt P29597); assay: Ba/F3 cell proliferation (WST-1), Tyk2; details: Ba/F3 cells expressing the enzyme, read-out: Cell-based assay IC50, Tyk2
T6 construct: expressed in transfected cells; host or cells: Ba/F3

HMC-1α155 cells = assay: Mastocytoma cell line proliferation (WST-1), HMC-1α155; type: cell-based; details: Homo sapiens, 48 h; 2 days; KIT juxtamembrane mutation
Method: (§3) (B) western blotting analysis of HMC-1α155 tyrosine phosphorylation. […] (D) Western blotting analysis of BMMC tyrosine phosphorylation. Cell proliferation was assessed by WST-1 colorimetric assay. […] MW = molecular weight.

FMA3 cells = assay: Mastocytoma cell line proliferation (WST-1), FMA3; type: cell-based, murine; details: Mus musculus, 48 h; 2 days; KIT juxtamembrane mutation
Method: as §3

[4] = tested on: primary BMMCs from mice expressing wild-type KIT; assay: SCF-stimulated proliferation and KIT tyrosine phosphorylation in primary BMMCs; type: cell-based; details: Mus musculus, BMMC, primary murine BMMCs, read-out: IC50, SCF-stimulated cell proliferation and tyrosine phosphorylation of KIT in BMMCs
Method: as §3

mouse bone marrow cells = assay: Chromosome / mitotic apparatus damage in mouse bone marrow cells; type: in vivo; details: two daily administrations at 437.5, 875, or 1750 mg/kg/day, our unpublished results
[5] = biological target: Insulin-like growth factor-I receptor (Homo sapiens, UniProt P08069); assay: Ba/F3 cell proliferation (WST-1), IGF-I receptor; parameters: expressed in transfected cells; host or cells: Ba/F3 (general description; not repeated for this kinase); details: Ba/F3 cells expressing the enzyme, read-out: Cell-based assay IC50, Insulin-like growth factor-I receptor

T1 sequence (P36888 27-993): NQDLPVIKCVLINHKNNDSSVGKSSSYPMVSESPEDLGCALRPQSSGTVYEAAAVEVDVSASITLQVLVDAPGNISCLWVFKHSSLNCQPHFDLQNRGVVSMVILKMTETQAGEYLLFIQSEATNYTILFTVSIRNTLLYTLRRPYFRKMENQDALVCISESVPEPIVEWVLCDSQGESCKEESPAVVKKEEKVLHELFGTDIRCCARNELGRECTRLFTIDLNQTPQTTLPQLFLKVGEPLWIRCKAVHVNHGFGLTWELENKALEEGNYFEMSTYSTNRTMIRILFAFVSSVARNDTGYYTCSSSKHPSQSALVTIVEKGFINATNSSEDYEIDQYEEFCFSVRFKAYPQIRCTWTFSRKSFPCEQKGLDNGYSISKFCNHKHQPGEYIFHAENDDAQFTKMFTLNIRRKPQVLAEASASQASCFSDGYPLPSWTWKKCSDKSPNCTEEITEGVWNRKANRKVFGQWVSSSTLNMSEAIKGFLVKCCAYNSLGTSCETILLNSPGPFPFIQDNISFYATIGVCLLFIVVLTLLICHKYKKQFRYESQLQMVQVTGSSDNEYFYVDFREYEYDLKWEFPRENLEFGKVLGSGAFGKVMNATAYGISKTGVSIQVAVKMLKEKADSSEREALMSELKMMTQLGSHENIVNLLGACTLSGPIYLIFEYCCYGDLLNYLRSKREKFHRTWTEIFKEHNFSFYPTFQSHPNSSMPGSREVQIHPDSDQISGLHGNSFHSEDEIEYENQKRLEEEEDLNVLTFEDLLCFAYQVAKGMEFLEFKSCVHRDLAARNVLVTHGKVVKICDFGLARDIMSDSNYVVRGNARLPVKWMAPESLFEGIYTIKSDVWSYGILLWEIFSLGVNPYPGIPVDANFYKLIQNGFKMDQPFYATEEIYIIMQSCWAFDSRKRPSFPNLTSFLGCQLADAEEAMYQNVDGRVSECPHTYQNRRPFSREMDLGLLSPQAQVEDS
VEGFR1, sequence (P17948 27-1338): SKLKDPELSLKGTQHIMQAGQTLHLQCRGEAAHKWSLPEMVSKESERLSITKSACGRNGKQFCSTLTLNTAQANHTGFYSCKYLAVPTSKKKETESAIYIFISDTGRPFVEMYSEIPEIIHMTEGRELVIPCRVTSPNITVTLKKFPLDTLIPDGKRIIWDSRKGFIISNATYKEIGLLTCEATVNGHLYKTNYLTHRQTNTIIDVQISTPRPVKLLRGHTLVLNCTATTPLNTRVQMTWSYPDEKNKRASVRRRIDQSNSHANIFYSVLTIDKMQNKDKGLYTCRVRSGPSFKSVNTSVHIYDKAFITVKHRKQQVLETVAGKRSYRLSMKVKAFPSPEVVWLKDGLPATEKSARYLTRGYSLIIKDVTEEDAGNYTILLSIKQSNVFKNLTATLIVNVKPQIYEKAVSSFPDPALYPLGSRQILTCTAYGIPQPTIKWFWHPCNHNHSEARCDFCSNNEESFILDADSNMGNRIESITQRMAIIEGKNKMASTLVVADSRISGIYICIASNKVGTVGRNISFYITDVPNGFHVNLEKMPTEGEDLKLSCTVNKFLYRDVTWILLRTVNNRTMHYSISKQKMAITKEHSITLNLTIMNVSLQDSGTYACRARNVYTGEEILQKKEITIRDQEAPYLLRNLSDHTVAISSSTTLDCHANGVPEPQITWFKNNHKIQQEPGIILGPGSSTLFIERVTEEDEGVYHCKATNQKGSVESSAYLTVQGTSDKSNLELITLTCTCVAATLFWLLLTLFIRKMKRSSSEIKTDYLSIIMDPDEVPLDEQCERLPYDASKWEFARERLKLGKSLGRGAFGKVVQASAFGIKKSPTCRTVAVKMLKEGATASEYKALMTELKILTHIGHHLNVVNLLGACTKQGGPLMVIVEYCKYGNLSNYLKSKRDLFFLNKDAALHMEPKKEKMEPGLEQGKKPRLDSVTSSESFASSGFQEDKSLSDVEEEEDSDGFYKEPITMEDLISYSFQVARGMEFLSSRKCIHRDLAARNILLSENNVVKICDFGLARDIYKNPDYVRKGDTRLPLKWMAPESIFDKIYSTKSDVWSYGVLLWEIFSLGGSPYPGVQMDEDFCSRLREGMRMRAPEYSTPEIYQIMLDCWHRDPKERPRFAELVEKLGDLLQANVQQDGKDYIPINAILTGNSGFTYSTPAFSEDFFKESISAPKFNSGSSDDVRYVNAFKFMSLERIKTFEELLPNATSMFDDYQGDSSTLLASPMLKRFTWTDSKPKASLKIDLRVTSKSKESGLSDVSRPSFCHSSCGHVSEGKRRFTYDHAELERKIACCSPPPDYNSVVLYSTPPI
T4 sequence (P31749 whole entry): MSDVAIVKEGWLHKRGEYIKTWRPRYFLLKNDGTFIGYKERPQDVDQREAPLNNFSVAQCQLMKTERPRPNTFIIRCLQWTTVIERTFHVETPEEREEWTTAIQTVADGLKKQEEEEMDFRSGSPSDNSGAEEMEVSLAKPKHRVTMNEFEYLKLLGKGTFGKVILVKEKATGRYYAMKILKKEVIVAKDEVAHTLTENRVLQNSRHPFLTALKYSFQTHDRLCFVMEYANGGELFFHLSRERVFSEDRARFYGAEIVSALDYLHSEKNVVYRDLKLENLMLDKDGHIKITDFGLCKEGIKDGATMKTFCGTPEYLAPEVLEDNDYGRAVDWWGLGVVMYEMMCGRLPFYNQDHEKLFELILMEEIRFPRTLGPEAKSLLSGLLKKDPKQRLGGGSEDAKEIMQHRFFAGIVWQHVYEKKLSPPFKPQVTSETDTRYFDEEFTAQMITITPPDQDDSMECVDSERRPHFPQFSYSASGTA
VEGFR2, sequence (P35968 20-1356): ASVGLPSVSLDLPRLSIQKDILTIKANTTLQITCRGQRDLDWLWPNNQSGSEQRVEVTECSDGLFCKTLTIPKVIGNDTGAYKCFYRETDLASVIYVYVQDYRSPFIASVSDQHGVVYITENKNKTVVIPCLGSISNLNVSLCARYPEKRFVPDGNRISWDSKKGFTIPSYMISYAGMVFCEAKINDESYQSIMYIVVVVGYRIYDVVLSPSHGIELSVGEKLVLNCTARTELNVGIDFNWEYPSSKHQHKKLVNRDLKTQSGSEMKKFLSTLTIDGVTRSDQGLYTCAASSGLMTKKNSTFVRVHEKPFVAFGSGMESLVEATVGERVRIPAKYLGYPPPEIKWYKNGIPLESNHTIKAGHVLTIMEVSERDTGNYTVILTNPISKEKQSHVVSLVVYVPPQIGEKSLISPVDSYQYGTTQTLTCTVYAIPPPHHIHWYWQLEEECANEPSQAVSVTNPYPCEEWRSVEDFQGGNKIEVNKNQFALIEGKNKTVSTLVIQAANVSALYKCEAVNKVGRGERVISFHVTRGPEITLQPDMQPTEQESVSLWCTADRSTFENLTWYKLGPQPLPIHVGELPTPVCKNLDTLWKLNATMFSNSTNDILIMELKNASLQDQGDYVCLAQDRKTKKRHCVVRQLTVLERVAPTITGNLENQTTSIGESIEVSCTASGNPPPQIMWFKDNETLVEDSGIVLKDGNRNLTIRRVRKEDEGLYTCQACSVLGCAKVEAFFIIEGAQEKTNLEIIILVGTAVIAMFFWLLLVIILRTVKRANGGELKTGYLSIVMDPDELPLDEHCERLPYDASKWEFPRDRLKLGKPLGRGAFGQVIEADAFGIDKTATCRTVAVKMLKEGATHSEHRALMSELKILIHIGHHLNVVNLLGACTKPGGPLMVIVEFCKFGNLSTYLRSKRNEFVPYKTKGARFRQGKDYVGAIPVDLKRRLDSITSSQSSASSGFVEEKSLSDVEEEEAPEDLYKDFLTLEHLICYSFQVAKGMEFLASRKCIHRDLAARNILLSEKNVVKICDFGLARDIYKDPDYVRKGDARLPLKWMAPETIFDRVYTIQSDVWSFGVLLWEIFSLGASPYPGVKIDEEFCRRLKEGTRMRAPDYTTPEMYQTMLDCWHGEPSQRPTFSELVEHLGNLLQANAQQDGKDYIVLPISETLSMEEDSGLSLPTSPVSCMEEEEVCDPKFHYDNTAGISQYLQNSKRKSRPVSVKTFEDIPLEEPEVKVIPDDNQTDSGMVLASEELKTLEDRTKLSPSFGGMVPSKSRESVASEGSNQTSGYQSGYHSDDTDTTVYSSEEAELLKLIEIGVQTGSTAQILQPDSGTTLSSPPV
Fibroblast growth factor receptor 3, sequence (P22607 23-806): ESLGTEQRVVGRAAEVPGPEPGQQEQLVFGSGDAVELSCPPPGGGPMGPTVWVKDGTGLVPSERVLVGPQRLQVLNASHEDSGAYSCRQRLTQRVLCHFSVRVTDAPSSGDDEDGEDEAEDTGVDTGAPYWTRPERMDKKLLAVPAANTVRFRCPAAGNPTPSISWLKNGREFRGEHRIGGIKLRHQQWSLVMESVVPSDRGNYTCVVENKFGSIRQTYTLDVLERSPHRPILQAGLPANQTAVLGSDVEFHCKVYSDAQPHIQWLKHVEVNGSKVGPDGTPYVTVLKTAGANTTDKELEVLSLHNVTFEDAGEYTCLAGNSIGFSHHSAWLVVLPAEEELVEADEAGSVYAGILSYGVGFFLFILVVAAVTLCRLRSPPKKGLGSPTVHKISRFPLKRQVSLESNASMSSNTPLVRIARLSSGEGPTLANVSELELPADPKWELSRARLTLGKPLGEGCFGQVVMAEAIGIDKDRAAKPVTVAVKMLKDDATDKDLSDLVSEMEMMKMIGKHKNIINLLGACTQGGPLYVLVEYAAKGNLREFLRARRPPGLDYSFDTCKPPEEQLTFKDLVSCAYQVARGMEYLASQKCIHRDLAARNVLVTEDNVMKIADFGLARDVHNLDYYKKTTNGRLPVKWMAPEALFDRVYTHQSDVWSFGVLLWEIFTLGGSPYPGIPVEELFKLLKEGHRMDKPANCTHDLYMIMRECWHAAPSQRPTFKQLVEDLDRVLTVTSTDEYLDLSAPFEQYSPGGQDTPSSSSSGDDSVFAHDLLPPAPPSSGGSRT

`CS(=O)(=O)O.CS(=O)(=O)O.Cc1ccc(NC(=O)c2ccc(CN3CCN(C)CC3)cc2)cc1Nc1nc(-c2cccnc2)cs1` [masitinib, 4-(4-methylpiperazin-1-ylmethyl)-N-[4-methyl-3-(4-pyridin-3ylthiazol-2-ylamino)phenyl]benzamide-mesylate methane sulfonic acid salt] was tested, and the IC50 (Flt3 [1]) was greater than 10 µM, the IC50 (VEGFR1) was greater than 10 µM and the IC50 (VEGFR2) was greater than 10 µM. The IC50 (Src) was 1.87 ± 0.31 µM, the IC50 (Hck) was 2 ± 0.2 µM and the IC50 (Akt1) was greater than 10 µM. The IC50 (KIT D^814V (murine)) was 3 ± 0.1 µM, the IC50 (Flt3 [2]) was 5 ± 2 µM and the IC50 [3] was 5.5 ± 2.8 µM. The IC50 (Tyk2) was 9 ± 0.8 µM, the IC50 (HMC-1α155 cells) was roughly 0.01 µM and the IC50 (FMA3 cells) was roughly 0.03 µM. For the same compound, the IC50 [4] was 0.2 ± 0.05 µM, the “damage to chromosomes or the mitotic apparatus” value (mouse bone marrow cells) was “does not cause damage to chromosomes or the mitotic apparatus” and the IC50 [5] was 10 ± 0.67 µM.

— paper PMC2746281 (PLoS ONE, 2009)
